# ChEMBL document CHEMBL1201862, “PubChem BioAssay data set” (2004)
#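 Interpolation was linear, between the two tested concentrations surrounding the appropriate level; five concentrations were tested over 48 hours in 96-well plates. GI50 marks 50% less growth.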 Active and inactive are the calls of the source. Rule as the data show it: active = GI50 up to about 1.1 µM and inactive = higher.
# Legend:
# Test in all cases: NCI anticancer screen, dose series, 48 h
# UO-31 = tested on: UO-31
# A498 = tested on: A498
# NCI-H460 = tested on: NCI-H460
# UACC-257 = tested on: UACC-257
# MCF7 = tested on: MCF7
# SF-295 = tested on: SF-295
# HOP-62 = tested on: HOP-62
# BT-549 = tested on: BT-549
# K562 = tested on: K562
# SF-539 = tested on: SF-539
# HCT-15 = tested on: HCT-15
# SN12C = tested on: SN12C
# SNB-75 = tested on: SNB-75
# SW-620 = tested on: SW-620
# SK-OV-3 = tested on: SK-OV-3
# SK-MEL-28 = tested on: SK-MEL-28
# NCI-H522 = tested on: NCI-H522
SMILES,GI50 (UO-31),GI50 (A498),GI50 (NCI-H460),GI50 (UACC-257),GI50 (MCF7),GI50 (SF-295),GI50 (HOP-62),GI50 (BT-549),GI50 (K562),GI50 (SF-539),GI50 (HCT-15) [µM],GI50 (SN12C),GI50 (SNB-75),GI50 (SW-620),GI50 (SK-OV-3),GI50 (SK-MEL-28),GI50 (NCI-H522)
CCOC(=O)c1c(N=C(S)Nc2ccccc2)sc2c1CCN(C)C2,> 100 µM (inactive),> 100 µM (inactive),> 100 µM (inactive),> 100 µM (inactive),> 100 µM (inactive),> 100 µM (inactive),> 100 µM (inactive),> 100 µM (inactive),> 100 µM (inactive),> 100 µM (inactive),> 100,> 100 µM (inactive),–,–,–,–,–
NC(=O)C(=CNC(=S)Nc1ccc(Cl)c(Cl)c1)C(N)=O,16.5 µM (inactive),> 61.4 µM (inactive),> 100 µM (inactive),> 100 µM (inactive),> 52 µM (inactive),> 85.7 µM (inactive),> 100 µM (inactive),–,> 70 µM (inactive),26.7 µM (inactive),45.1,> 100 µM (inactive),> 59.6 µM (inactive),> 100 µM (inactive),> 78.7 µM (inactive),> 100 µM (inactive),17.5 µM (inactive)
COc1ccc(/C=C2\C[C@H]3[C@@H]4CCC5=C/C(=N/O)CC[C@]5(C)[C@H]4CC[C@]3(C)\C2=N\O)cc1,4.53 µM (inactive),–,6.59 µM (inactive),30.1 µM (inactive),5.01 µM (inactive),12.6 µM (inactive),34.4 µM (inactive),15.9 µM (inactive),6.47 µM (inactive),–,10.6,14.1 µM (inactive),19.7 µM (inactive),36.9 µM (inactive),42.7 µM (inactive),61.8 µM (inactive),14.9 µM (inactive)
CC1CCc2sc3nc(S)n(C)c(=O)c3c2C1 (stereo not drawn),18.3 µM (inactive),–,35.4 µM (inactive),35.3 µM (inactive),35.5 µM (inactive),31.1 µM (inactive),39.7 µM (inactive),96.8 µM (inactive),42.2 µM (inactive),–,39.5,36.5 µM (inactive),35.9 µM (inactive),39.2 µM (inactive),81.3 µM (inactive),58.5 µM (inactive),30.1 µM (inactive)
O=C(NCCCl)Nc1ccccc1,> 100 µM (inactive),> 100 µM (inactive),> 100 µM (inactive),> 100 µM (inactive),> 100 µM (inactive),> 100 µM (inactive),> 100 µM (inactive),–,> 100 µM (inactive),–,> 100,> 100 µM (inactive),> 100 µM (inactive),> 100 µM (inactive),> 100 µM (inactive),> 100 µM (inactive),> 100 µM (inactive)
CC12c3c4cc(Br)cc3Oc3cc(Br)cc(c31)Oc1cc(Br)cc(c12)O4,52 µM (inactive),–,63.1 µM (inactive),36.9 µM (inactive),43.4 µM (inactive),> 100 µM (inactive),60.4 µM (inactive),21.9 µM (inactive),44.4 µM (inactive),34.6 µM (inactive),41.4,31 µM (inactive),15.5 µM (inactive),24.6 µM (inactive),> 100 µM (inactive),30.5 µM (inactive),–
OCCCC(O)(c1ccccc1)c1ccccc1,> 100 µM (inactive),–,> 100 µM (inactive),> 100 µM (inactive),> 100 µM (inactive),> 100 µM (inactive),> 100 µM (inactive),> 100 µM (inactive),> 100 µM (inactive),> 100 µM (inactive),> 100,> 100 µM (inactive),> 100 µM (inactive),> 100 µM (inactive),> 100 µM (inactive),> 100 µM (inactive),> 100 µM (inactive)
CCN(CCCl)c1cc(CN(C)C)cc(NC(=O)c2ccc(C(=O)Nc3cccc(N(CCCl)NN)c3)cc2)c1,0.462 µM (active),0.197 µM (active),< 0.01 µM (active),0.174 µM (active),< 0.01 µM (active),0.0428 µM (active),0.0453 µM (active),–,0.014 µM (active),0.16 µM (active),0.455,0.0332 µM (active),0.0336 µM (active),< 0.01 µM (active),0.116 µM (active),0.192 µM (active),< 0.01 µM (active)
N#C[BH2-][n+]1cn(C2CC(O)C(COP(=O)(O)OC3CC(n4c[n+]([BH2-]C#N)c5c(=O)[nH]c(N)nc54)OC3CO)O2)c2nc(N)[nH]c(=O)c21 (stereo not drawn),> 100 µM (inactive),> 100 µM (inactive),> 100 µM (inactive),–,> 100 µM (inactive),> 100 µM (inactive),> 100 µM (inactive),–,10 µM (inactive),> 100 µM (inactive),> 100,> 100 µM (inactive),> 100 µM (inactive),> 100 µM (inactive),–,> 100 µM (inactive),> 100 µM (inactive)
CC(=O)CC(=O)c1cc2c(=O)oc(C)cc2oc1=O,> 37.5 µM (inactive),–,> 37.5 µM (inactive),> 37.5 µM (inactive),> 37.5 µM (inactive),> 37.5 µM (inactive),> 37.5 µM (inactive),> 37.5 µM (inactive),> 37.5 µM (inactive),> 37.5 µM (inactive),> 37.5,> 37.5 µM (inactive),2.75 µM (inactive),> 37.5 µM (inactive),> 37.5 µM (inactive),> 37.5 µM (inactive),> 37.5 µM (inactive)
O=C1CSC(c2c[nH]c3ccccc23)N1c1ccc(Cl)cc1Cl (stereo not drawn),> 100 µM (inactive),–,> 100 µM (inactive),> 100 µM (inactive),> 100 µM (inactive),> 100 µM (inactive),> 100 µM (inactive),> 100 µM (inactive),> 100 µM (inactive),> 100 µM (inactive),> 100,> 100 µM (inactive),0.865 µM (active),> 100 µM (inactive),> 100 µM (inactive),> 100 µM (inactive),> 100 µM (inactive)
FC(F)(F)c1ccc(Cc2nc3cc4ccccc4cc3[nH]2)cc1,58.5 µM (inactive),> 100 µM (inactive),> 100 µM (inactive),> 100 µM (inactive),92.3 µM (inactive),> 100 µM (inactive),> 100 µM (inactive),> 100 µM (inactive),32.1 µM (inactive),> 100 µM (inactive),> 100,> 100 µM (inactive),3.78 µM (inactive),> 100 µM (inactive),–,> 100 µM (inactive),26.7 µM (inactive)
CCOC(=O)c1c(C)n(-c2ccc(C)cc2)c(=O)c2ccccc2c(=O)c2c(=O)ccc(=O)c1=2,23.4 µM (inactive),–,19.4 µM (inactive),18.5 µM (inactive),18.8 µM (inactive),–,18.8 µM (inactive),23.3 µM (inactive),15.2 µM (inactive),21.9 µM (inactive),14.3,21.7 µM (inactive),23.3 µM (inactive),25.6 µM (inactive),27 µM (inactive),12.2 µM (inactive),18.3 µM (inactive)
N=c1c2ccccc2nc2oc3ccc(Cl)cc3n12,16.4 µM (inactive),–,25.8 µM (inactive),> 100 µM (inactive),–,12.8 µM (inactive),5.81 µM (inactive),36.6 µM (inactive),9.2 µM (inactive),15.5 µM (inactive),48,9.46 µM (inactive),2.75 µM (inactive),5.62 µM (inactive),13.1 µM (inactive),25.2 µM (inactive),17.3 µM (inactive)
CC(C)=CCC/C(C)=C/CC/C(C)=C/[C@@H]1[C@@H](CO)[C@]1(C)CC/C=C(\C)CCC=C(C)C,18.6 µM (inactive),> 100 µM (inactive),47.6 µM (inactive),74.3 µM (inactive),–,60.8 µM (inactive),69.7 µM (inactive),> 100 µM (inactive),31.3 µM (inactive),22 µM (inactive),30.3,41.1 µM (inactive),> 100 µM (inactive),22.6 µM (inactive),> 100 µM (inactive),> 100 µM (inactive),17.1 µM (inactive)
CCOC(=O)C(NCc1ccc2c(c1)OCO2)(NC(=O)c1ccccc1)C(F)(F)F (stereo not drawn),51.3 µM (inactive),–,–,> 100 µM (inactive),60.3 µM (inactive),> 100 µM (inactive),> 100 µM (inactive),> 100 µM (inactive),44.4 µM (inactive),> 100 µM (inactive),> 100,> 100 µM (inactive),> 100 µM (inactive),> 100 µM (inactive),> 100 µM (inactive),> 100 µM (inactive),39.1 µM (inactive)
CC1(C)CC(=O)C(=CNC(=S)c2ccccc2)C(=O)C1,> 100 µM (inactive),–,> 100 µM (inactive),> 100 µM (inactive),> 100 µM (inactive),> 100 µM (inactive),> 100 µM (inactive),> 100 µM (inactive),–,> 100 µM (inactive),> 100,> 100 µM (inactive),> 100 µM (inactive),> 100 µM (inactive),> 100 µM (inactive),> 100 µM (inactive),> 100 µM (inactive)
Cc1cccc2c1CC1(Cc3c(C)cccc3C1=O)C2=O,> 100 µM (inactive),> 100 µM (inactive),> 100 µM (inactive),> 100 µM (inactive),> 100 µM (inactive),> 100 µM (inactive),> 100 µM (inactive),–,> 100 µM (inactive),> 100 µM (inactive),> 100,–,> 100 µM (inactive),> 100 µM (inactive),> 100 µM (inactive),> 100 µM (inactive),> 100 µM (inactive)
